Test results: the supplement of paper PMC10307832

Tests used:
Test in all cases: relative viability (nuclei count vs DMSO), 5 days (fraction); higher = more cells survive
[1] = compound: CNC(=O)c1cc(Oc2ccc(NC(=O)Nc3ccc(Cl)c(C(F)(F)F)c3)cc2)ccn1 [Sorafenib] + Nc1nc2[nH]cc(CCc3ccc(C(=O)N[C@@H](CCC(=O)O)C(=O)O)cc3)c2c(=O)[nH]1 [Pemetrexed] (partner 0.2 µM)
Outline: (§1)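 Lung cancer cell lines in 1536-well plates were dosed by pin tool the day after seeding, either with one drug alone or with a fixed anchor-drug dose plus five library-drug doses (not always all listed) in √10 steps. After 5 days, cells were fixed and their nuclei stained in one step (final 0.05% Triton X-100, 1% formaldehyde, 1 ug/ml Hoechst), then counted on 4× images. Relative viability is the nuclei count in treated wells divided by that in vehicle wells. Values are medians of duplicate plates.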

[2] = compound: CNC(=O)c1cc(Oc2ccc(NC(=O)Nc3ccc(Cl)c(C(F)(F)F)c3)cc2)ccn1 [Sorafenib] + Nc1ncn([C@H]2C[C@H](O)[C@@H](CO)O2)c(=O)n1 [Decitabine] (partner 2 µM)
Outline: as §1

[3] = compound: CNC(=O)c1cc(Oc2ccc(NC(=O)Nc3ccc(Cl)c(C(F)(F)F)c3)cc2)ccn1 [Sorafenib] + NC(=O)Nc1cc(-c2cccc(F)c2)sc1C(=O)N[C@H]1CCCNC1 [AZD7762] (partner 0.2 µM)
Outline: as §1

[4] = compound: CNC(=O)c1cc(Oc2ccc(NC(=O)Nc3ccc(Cl)c(C(F)(F)F)c3)cc2)ccn1 [Sorafenib] + CS(=O)(=O)N1CCN(Cc2cc3nc(-c4cccc5[nH]ncc45)nc(N4CCOCC4)c3s2)CC1 [Pictilisib] (partner 1 µM)
Outline: as §1

[5] = compound: CNC(=O)c1cc(Oc2ccc(NC(=O)Nc3ccc(Cl)c(C(F)(F)F)c3)cc2)ccn1 [Sorafenib] + CC(=O)Nc1cccc(-n2c(=O)n(C3CC3)c(=O)c3c(Nc4ccc(I)cc4F)n(C)c(=O)c(C)c32)c1 [Trametinib] (partner 0.02 µM)
Outline: as §1

Cell Line	relative viability ([1]; first compound 0.08 µM)	relative viability ([1]; first compound 0.253 µM)	relative viability ([1]; first compound 2.53 µM)	relative viability ([1]; first compound 8 µM)	relative viability ([2]; first compound 0.08 µM)	relative viability ([2]; first compound 0.253 µM)	relative viability ([2]; first compound 2.53 µM)	relative viability ([2]; first compound 8 µM)	relative viability ([3]; first compound 0.08 µM)	relative viability ([3]; first compound 0.253 µM)	relative viability ([3]; first compound 2.53 µM)	relative viability ([3]; first compound 8 µM)	relative viability ([4]; first compound 0.08 µM)	relative viability ([4]; first compound 0.253 µM)	relative viability ([4]; first compound 2.53 µM)	relative viability ([4]; first compound 8 µM)	relative viability ([5]; first compound 0.08 µM)	relative viability ([5]; first compound 0.253 µM)	relative viability ([5]; first compound 2.53 µM)	relative viability ([5]; first compound 8 µM)
NCI-H1437	0.335	0.312	0.268	0.184	0.536	0.524	0.626	0.393	1.23	1.05	1.13	0.539	0.483	0.393	0.364	0.238	0.59	0.389	0.533	0.342
HOP-62	0.324	0.303	0.193	0.135	0.253	0.22	0.186	0.198	–	0.567	0.405	0.207	0.685	0.632	0.619	0.68	0.438	0.45	0.372	0.209
LCLC-97TM1	0.154	0.168	0.118	0.226	0.235	0.224	0.165	0.252	0.311	0.139	0.229	0.214	0.152	0.207	0.211	0.16	0.198	0.199	0.133	0.103
NCI-H2009	1.02	0.909	0.83	0.959	0.375	0.394	0.315	0.227	–	–	–	–	0.866	0.621	0.752	0.265	0.339	0.282	0.204	0.159
NCI-H647	0.171	0.141	0.126	0.0896	0.4	0.316	0.355	0.184	0.415	0.298	0.64	0.35	0.544	–	0.475	0.374	0.583	0.388	0.235	0.144
NCI-H1563	0.969	0.654	0.775	0.659	–	–	–	–	–	–	–	–	0.653	0.523	0.614	0.665	–	–	–	–
NCI-H3122	0.209	0.194	0.222	0.167	0.384	0.467	0.375	0.189	0.905	0.905	1.08	0.965	0.762	0.671	0.604	0.234	0.234	0.208	0.176	0.129
BEN	0.839	0.657	–	0.674	0.746	0.726	–	0.461	–	0.493	0.741	0.611	0.649	0.512	0.531	0.413	1.11	0.911	0.945	0.913
COR-L23	0.2	0.199	0.19	0.212	0.417	0.374	0.501	0.332	–	–	–	–	0.952	0.881	0.745	0.676	0.645	0.433	0.312	0.232
NCI-H2228	0.361	0.323	0.244	0.31	–	–	–	–	–	–	–	–	0.384	0.375	0.337	0.529	0.802	0.377	0.356	0.266
NCI-H2405	1.12	0.902	1.13	0.982	0.754	0.726	0.737	0.577	0.819	0.597	0.681	0.63	0.539	0.39	0.363	0.293	0.784	0.461	0.413	0.324
NCI-H1666	0.916	0.856	–	0.62	0.834	0.774	0.727	0.616	0.865	0.778	0.797	0.719	0.497	0.407	0.451	0.331	0.954	0.764	0.762	0.639
A-427	0.926	0.919	1.05	0.954	0.598	0.528	–	0.532	0.831	0.675	0.715	0.541	0.771	0.669	0.768	0.376	0.731	0.754	0.551	0.383
COR-L 105	1.26	1.31	1.32	0.852	0.733	0.617	0.695	0.573	–	–	–	–	0.413	0.487	0.476	0.329	0.51	0.472	0.432	0.378
NCI-H1755	–	0.385	0.419	0.355	0.72	0.715	0.753	0.634	0.474	0.383	0.504	0.312	0.466	0.422	0.417	0.263	0.8	0.761	0.71	0.557
NCI-H23	0.764	0.609	0.716	0.421	0.269	0.292	0.302	0.26	0.193	0.323	0.229	0.159	0.474	0.445	0.39	0.362	0.406	0.397	0.288	0.225
SK-MES-1	0.999	0.84	0.881	–	0.365	0.326	0.322	0.338	–	–	–	–	0.451	0.439	0.447	0.377	0.627	0.614	0.315	0.231
UMC-11	0.869	0.788	0.772	0.474	0.596	0.57	0.535	0.249	–	–	–	–	0.85	0.78	0.759	0.523	0.854	0.743	0.639	0.612
